Measured values reported in PMC6973269, “Lipidated Stapled Peptides Targeting the Acyl Binding Protein UNC119” (Chembiochem, 2019).
Where a SMILES comes first, the peptide text is derived from it. Bridges are numbered along the chain shown (N, C = ends). [ ]: non-standard residue; d: D form. The star is where a group is joined. Myristoyl = CCCCCCCCCCCCCC(=O)*; S5 = C=CCCC[C@](C)(N)C(=O)O

Tests used:
MDA-MB-231 cells [1] = assay: Subcellular (nucleus, cytosol) peptide concentration by quantitative UPLC-MS; format: in vitro ADME; details: for Peptide concentration, cytosol, 0.5 h / Peptide concentration, nucleus, 0.5 h / Peptide concentration, cytosol, 72 h / Peptide concentration, nucleus, 72 h: unlabeled peptide 25 μM, MDA-MB-231 cells, subcellular fractionation, LLOQ given if not detected; for Peptide concentration, cytosol, 0.5 h / Peptide concentration, nucleus, 0.5 h: 0.5 h incubation; for Peptide concentration, cytosol, 72 h / Peptide concentration, nucleus, 72 h: 72 h incubation
Procedure: (§1) Total intracellular and sub cellular concentrations
(§2) […] cells were cultured DMEM (high glucose) supplemented with 10% FCS and 1% Glutamax.
(§3) When 80% confluency cell culture media was removed from each flask and new media containing 25 µM of peptides was added and incubated with cells for 30 min and 72 h. Following peptide incubation, cells were washed twice with PBS, trypsinized and pelleted. Pellets where lysed in RIPA buffer (Perkin Elmer) for total […]
(§4) lysis; or CelLytic NuCLEAR Extraction Kit (SIGMA) for subcellular fractionation. Total protein quantification BCA (Pierce) was performed prior to MS analysis to normalize sample data.
(§5) Total and sub-cellular quantities of peptides 4, 10 and R8 were quantified[3] in lysates by UPLC-MS utilising a Waters Xevo TQ-XS (WBA0259) and a Waters Acquity UPLC system consisting of, Sample Manager (M16UFL953M), Acquity PDA (F17UPD457A), Column Oven (E17CMP703G) and Binary Solvent Manager (E17BUR621G). For peptides 4 and 10 analytical UPLC separation was performed using a Waters CSH C18 1.7 µm, 2.1 x 50 mm column. A gradient was utilized of 97% A to 5% in 4mins, 0.5 min hold, 5% A to 97% in 0.5mins, where A = 0.1% HCOOH (aq) and B = 0.1% HCOOH in MeCN at a flow rate of 0.75 mL/min (Supporting Figure S7). Compound R8 was analyzed in HILIC mode using a Waters BEH Amide 1.7 µm, 2.1 x 100 mm column with a gradient of 30% A to 95% in 1.5 mins, 1 min hold, 95% A to 30% in 1.5 min, 1 min hold at 0.65 mL/min. The Waters TQ-XS was operated in +ve ion Electrospray (ESI) mode with the optimized transitions for PC658-AC, PC658-MYR and Ac-R8 (Supporting Table S3 and Figure S8). The chromatograms at each transition were extracted, smoothed and integrated to give the standard curve. Chromatograms of the samples were treated similarly and by linear regression (1/x) an in-cell concentration was established in the re-suspended cell lysate using the Waters MassLynx TargetLynxTM product (Supporting Tables S4 – S7).

MDA-MB-231 cells [2] = assay: Total intracellular peptide concentration by quantitative UPLC-MS; format: in vitro ADME; details: for Total drug content, pMols/million cells / Total drug content, Measured Conc: 25 µM compound, 0.5 h; for Total drug content, pMols/million cells: total lysis; for Total drug content, pMols/million cells / Total drug content, Measured Conc / Peptide concentration, total cell, 0.5 h: UPLC-MS; for Fold higher total cell uptake than peptide 10: 25 μM, 30 min, quantitative mass spectrometry; for Fold higher total cell uptake than peptide 10 / Peptide concentration, total cell, 0.5 h: MDA-MB-231 cells; for Total drug content, Measured Conc: concentration in re-suspended cell lysate, dilution factor 10; for Peptide concentration, total cell, 0.5 h: unlabeled peptide 25 μM, 0.5 h incubation, RIPA total lysis, LLOQ given if not detected
Procedure: as §1, §2, §3, §4, §5

UNC119a = target: T1, UNC119a (Homo sapiens, UniProt Q13432); assay: Fluorescence anisotropy binding assay, UNC119a; details: 5 nM fluorescein-labeled peptide, 4 h at room temperature, 30 mM Tris pH 7.5, 100 mM NaCl, 1 mM TCEP, 0.01% Chaps, triplicate, error 1 σ
T1 construct: made in house; host or cells: E. coli
Procedure: (§6) Fluorescence anisotropy assay
(§7) UNC119a/b was serially diluted in a buffer containing 30 mM Tris (pH 7.5), 100 mM NaCl, 1 mM TCEP and 0.01% Chaps (assay buffer), treated with 5 nM fluorescein-labeled peptides and incubated for 4 h at room temperature. Binding assays were performed in 384-well, small volume, black flat-bottom, non-binding plates (Greiner). Fluorescence polarization values (λex = 470 nm, λem = 525 nm) were determined using a Safire II plate reader (Tecan) at room temperature. All measurements were performed in triplicates. After correction for changes in fluorescence intensity upon binding, the fluorescence anisotropy data were converted into fraction bound (equation 1) of the FITC- labeled peptide and fitted via non-linear regression in Prism 5.0 (Graphpad).[1] fraction bound = A−Afree (1)
(§8) Afree: anisotropy of free fluorophore
(§9) Abound: anisotropy of bound fluorophore
(§10) Q: change in fluorescence intensity between free and bound state
(§11) Protein expression and purification
(§12) UNC119a and UNC119b were expressed in E. coli according to the previously reported procedures.[2] […]
(§13) Additionally, HeLa cells were supplemented with penicillin and streptomycin. All cultures were routinely tested and found to be free of mycoplasma contamination.

UNC119b = target: T2, UNC119b (Homo sapiens, UniProt A6NIH7); assay: Fluorescence anisotropy binding assay, UNC119b; details: 5 nM fluorescein-labeled peptide, 4 h at room temperature, 30 mM Tris pH 7.5, 100 mM NaCl, 1 mM TCEP, 0.01% Chaps, triplicate, error 1 σ
T2 construct: made in house; host or cells: E. coli
Procedure: as §6, §7, §8, §9, §10, §11, §12, §13

HeLa cells [3] = assay: DNA content (4N) by propidium iodide staining and flow cytometry, HeLa cells; format: cell-based, human; details: control compound 1 µM (maximum tolerated concentration), 24 h, flow cytometry, triplicate, error 1 σ
Procedure: (§14) 3 x10^4 L or Hela cells were seeded per well in 6–well plates and grown overnight. The following day, cells were treated with the indicated compound concentrations for 72 h or with nocodazole as a control for 24 h). Cells were washed, detached using trypsin and re-suspended in phosphate-buffered saline (PBS).
(§15) Cells were centrifuged at 200xg for 5 min at room temperature (RT) and washed again. Cells were then fixed with 70% ethanol and stained with propidium iodide solution (12 µg/mL propidium iodide (Sigma, Germany), 0.1% (v/v) Triton X-100 and 100 µg/mL DNase-free RNase A (Sigma, Germany) in PBS) for 30 min at room temperature. Cell suspensions were filtered to FACS tubes through a nylon mesh before analysis.
(§16) 10,000 cells for each sample were sorted by the BD LSRII analyzer (Becton Dickinson, USA). FlowJo 6.2.1 software was used for quantification and analysis of all data. For every analysis, FSC and SSC (forward and side scatter, respectively) gating was performed to exclude doublets and debris. In addition, cells were gated for singlets (PI-W vs. PI-A). […]

HeLa cells [4] = assay: Fluorescence microscopy of cell morphology (tubulin antibody, DAPI); format: cell-based, human; details: 1 μM, 24 h, fixation, anti-tubulin antibody and DAPI staining
Procedure: 2x10^4 Hela cells were seeded per well in a 24-well plate on cover slips and incubated overnight. Next day, cells were treated with different concentrations of the peptides or DMSO, nocodazole and cytochalasin D as controls and incubated at 37°C and 5% CO2 for the indicated times (72 h or 24 h). Cells were then fixed using 3.7% paraformaldehyde for 15 min at room temperature followed by permeabilization using 0.1% Triton X-100 in PBS for 15 min. Blocking was performed in 2% BSA in PBS containing 0.1% Tween 20 for 1 h at room temperature. Samples were incubated with the indicated primary antibodies (anti-tubulin primary antibody conjugated to FITC) in the blocking solution overnight at 4°C. After washing, cells were incubated with 1 µg/mL DAPI in blocking solution for 1 h at room temperature, followed by three washes with PBS.

mouse fibroblast L cells = assay: DNA content (4N) by propidium iodide staining and flow cytometry, L cells; format: cell-based; details: control compound 1 µM (maximum tolerated concentration), 24 h, flow cytometry, triplicate, error 1 σ
Procedure: as §14, §15, §16

HeLa cells [5] = assay: Cellular uptake of fluorescently labeled peptides by flow cytometry; format: cell-based, human; details: fluorescently labeled peptide, 5 μM, 90 min, flow cytometry fluorescence intensity, % of levels observed for R8
Procedure: As the knock‐down of UNC119a was reported to increase the number of cytokinetic and binucleated cells,13 we investigated the influence of UNC119‐binding peptides on cell morphology. Initially, the uptake of fluorescently labeled peptide 4 by HeLa cells was investigated by using flow cytometry (c=5 μM for 90 min, Figure S4 and Table S2). These measurements show cellular uptake of 4 reaching about 50 % of the levels observed for cell‐penetrating peptide octa‐arginine (R8).30 Considering that this cellular uptake was sufficient, we tested the effect of unlabeled peptide 4 on cell morphology. As a reference, we used nocodazole (NC), which inhibits tubulin polymerization thereby inducing cell‐cycle arrest in the G2/M phase that results in cells with increased DNA content because chromosomal DNA has already been duplicated. HeLa and mouse fibroblast L cells were incubated with different peptide concentrations for 72 h prior to quantification of DNA content by using flow cytometry.
Supporting Figure S4. Cellular uptake of fluorescently labeled peptides as determined by fluorescence
intensities using flow cytometry in HeLa cells (90 min incubation at c(peptide) = 5 µM).
(1 picture or pasted object on this page, not shown here)

[6] = 25 µM compound, 0.5 h, concentration in lysate
[7] = 25 µM compound, 72 h, concentration in lysate

T2 sequence (A6NIH7 whole entry, species assumed): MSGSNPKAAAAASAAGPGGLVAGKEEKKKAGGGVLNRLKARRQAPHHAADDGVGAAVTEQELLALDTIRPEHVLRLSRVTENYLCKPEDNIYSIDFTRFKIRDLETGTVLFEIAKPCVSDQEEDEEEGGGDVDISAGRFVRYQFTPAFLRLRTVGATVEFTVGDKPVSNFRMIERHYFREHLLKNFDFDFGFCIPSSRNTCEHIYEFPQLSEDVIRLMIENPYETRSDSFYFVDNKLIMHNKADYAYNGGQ

Structure (SMILES) | Peptide concentration, cytosol, 0.5 h (MDA-MB-231 cells [1]) | Peptide concentration, nucleus, 0.5 h (MDA-MB-231 cells [1]) | Peptide concentration, cytosol, 72 h (MDA-MB-231 cells [1]) | Peptide concentration, nucleus, 72 h (MDA-MB-231 cells [1]) | Total drug content, pMols/million cells (MDA-MB-231 cells [2]) | Fold higher total cell uptake than peptide 10 (MDA-MB-231 cells [2]) | Total drug content, Measured Conc (MDA-MB-231 cells [2]) | Peptide concentration, total cell, 0.5 h (MDA-MB-231 cells [2]) | Kd (UNC119a) | Kd (UNC119b) | other results
CC(=O)N[C@@H](CCCNC(=N)N)C(=O)N[C@@H](CCCNC(=N)N)C(=O)N[C@@H](CCCNC(=N)N)C(=O)N[C@@H](CCCNC(=N)N)C(=O)N[C@@H](CCCNC(=N)N)C(=O)N[C@@H](CCCNC(=N)N)C(=O)N[C@@H](CCCNC(=N)N)C(=O)N[C@@H](CCCNC(=N)N)C(N)=O [R8] | 0.58 pmol per 10^6 cells | 0.56 pmol per 10^6 cells | 0.65 pmol per 10^6 cells | 0.64 pmol per 10^6 cells | 51.7 pMols/million cells | more than 100 fold | 108 nM | 52 pmol per 10^6 cells |  |  | Sub-cellular drug content, pMols/million cells, Cytoplasm, 0.5 h (MDA-MB-231 cells [1]; 25 µM compound, 0.5 h): 0.584 pMols/million cells; Sub-cellular drug content, pMols/million cells, Nuclear, 0.5 h (MDA-MB-231 cells [1]; 25 µM compound, 0.5 h): 0.563 pMols/million cells; Sub-cellular drug content, Measured Conc, Cytoplasm, 0.5 h (MDA-MB-231 cells [1]; [6]): 3.59 nM; Sub-cellular drug content, Measured Conc, Nuclear, 0.5 h (MDA-MB-231 cells [1]; [6]): 6.91 nM; Sub-cellular drug content, pMols/million cells, Cytoplasm, 72 h (MDA-MB-231 cells [1]; 25 µM compound, 72 h): 0.651 pMols/million cells; Sub-cellular drug content, pMols/million cells, Nuclear, 72 h (MDA-MB-231 cells [1]; 25 µM compound, 72 h): 0.638 pMols/million cells; Sub-cellular drug content, Measured Conc, Cytoplasm, 72 h (MDA-MB-231 cells [1]; [7]): 2.92 nM; Sub-cellular drug content, Measured Conc, Nuclear, 72 h (MDA-MB-231 cells [1]; [7]): 5.73 nM
CCCCCCCCCCCCCC(=O)NCC(=O)N[C@@H](C)C(=O)NCC(=O)N[C@@H](C)C(=O)N[C@@H](CO)C(=O)N[C@@H](C)C(=O)N[C@@H](CCC(=O)O)C(=O)N[C@@H](CCC(=O)O)C(=O)N[C@@H](CCCCN)C(=O)N[C@@H](Cc1c[nH]cn1)C(=O)N[C@@H](CCCCN)C(N)=O [Peptide 1] (Myristoyl-GAGASAEEKHK-NH2) |  |  |  |  |  |  |  |  | 7.4 nM | 11.2 nM | 
COC(=O)Nc1nc2ccc(C(=O)c3cccs3)cc2[nH]1 [nocodazole] |  |  |  |  |  |  |  |  |  |  | DNA-content 4N, HeLa cells (HeLa cells [3]): 68.6 ±4.2%; DNA-content 4N, HeLa cells (HeLa cells [3]; listed as NC): increased numbers of cells with doubled DNA content; Effect on HeLa cell morphology (HeLa cells [4]): deformation of the tubulin network; DNA-content 4N, L cells (mouse fibroblast L cells): 75.4 ± 15.0%; DNA-content 4N, L cells (mouse fibroblast L cells; listed as NC): increased numbers of cells with doubled DNA content
CCCCCCCCCCCCCC(=O)NCC(=O)N[C@@H](C)C(=O)NCC(=O)N[C@@H](C)C(=O)N[C@@H](CO)C(=O)N[C@@]1(C)CCCC=CCCC[C@@](C)(C(=O)N[C@@H](CCCCN)C(N)=O)NC(=O)[C@H](CCCCN)NC(=O)[C@H](CCC(=O)O)NC(=O)[C@H](CCC(=O)O)NC1=O [Peptide 4] (Myristoyl-GAGAS[S5]EEK[S5]K-NH2; staple 6-10) | <0.001 pmol per 10^6 cells | 0.22 pmol per 10^6 cells | 0.01 pmol per 10^6 cells | 0.45 pmol per 10^6 cells | 59.9 pMols/million cells | more than 100 fold | 155 nM | 60 pmol per 10^6 cells | 5.5 nM | 63.2 ± 14 nM | Cellular uptake relative to octa-arginine (R8) (HeLa cells [5]): about 50%
